Tests used:
[1] = Dog pharmacokinetic study (intravenous and oral); format: in vivo; conditions: plasma, Beagle dogs, oral, 5 mg/kg, solution
Experimental: (§1) Pharmacokinetic profile of test articles in rodent were evaluated in fasted male ICR mouse and Sprague-Dawley rats. […] Typically, mice were dosed with 2 mg/kg and 10 mg/kg by intravenous injection and oral gavage, respectively. Rats were dosed with 1 mg/kg and 5 mg/kg by intravenous injection and oral gavage, respectively. Beagle dogs were dosed with 1 mg/kg and 5 mg/kg by intravenous injection and oral gavage, respectively. After dosing, blood samples were collected at each time point. For IV injection group, time points were set at 5, 15, 30 min, and then 1, 2, 4, 8 and 24 hours after dosing. For oral gavage group, timepoints were set at 15, 30 m, and then 1, 2, 4, 8, and 24 hours. Blood was collected into appropriately labeled tubes containing K2EDTA as the anticoagulant. Plasma was obtained within 1 hours of blood collection by centrifugation at 8000×g and 4° C. for 6 minutes, and then stored at −20° C. until analyzed by LCMS/MS for quantification.

[2] = Rat colon pharmacokinetic study (plasma, colon, colon + fecal content); format: in vivo; conditions: SD rats, 10 mg/kg oral gavage; for Colon + Feces AUC: colon homogenized with fecal content; for Colon AUC: colon washed of fecal content; for half-life / AUC / Cmax: Sprague-Dawley (SD), rat; for half-life: in vivo; for AUC / Cmax: plasma
Experimental: The aim of this study was to obtain the pharmacokinetics of test articles in SD rats after oral administration. […] Rats were dosed with 10 mg/kg (1 mg/ml) via oral gavage. After dosing, blood and colon samples were collected at each time point (typically 0.5, 1, 3, 6, 24 hour). Blood was collected into appropriately labeled tubes containing K2EDTA as the anticoagulant. Plasma was obtained within one hour of blood collection by centrifugation at 8000g, 4-10° C. for 6 minutes, and then stored at −20° C. until analyzed by LC-MS/MS for quantification. Colon tissues were collected from exsanguinated rats at each time point. Collected colon tissue was divided into two parts. One part for the measurement of test articles in colon was washing three times by PBS to remove the fecal content before homogenization. The other part was homogenized with the fecal content for the measurement of test articles in colon and fecal content. Colon samples were homogenized in 1:5 (w/v) phosphate buffer (100 mM, pH 7.4). Homogenized samples were extracted with 3 fold volumes of acetonitrile and quantified against a standard curve with LC-MS/MS system.

[3] = Rat pharmacokinetic study (intravenous and oral); format: in vivo; conditions: male, plasma, Sprague-Dawley rats, intravenous, 1 mg/kg, solution
Experimental: as §1

[4] = Rat pharmacokinetic study (intravenous and oral); format: in vivo; conditions: Sprague-Dawley rats, oral, 2 mg/kg, solution
[5] = Dog pharmacokinetic study (intravenous and oral); format: in vivo; conditions: plasma, Beagle dogs, oral, 20 mg/kg, solution
[6] = Mini-pig dermal pharmacokinetic study; format: in vivo, Guangxi Bama mini-pigs; conditions: topical administration
Description: The aim of this study was to obtain the topical distribution of test articles in mini-pig after topical administration. Test articles were formulated in 50% PEG400, 10% transcutol and 40% PEG3350 (50% in water), and then applied to male Guangxi Bama mini-pigs (17-20 kg). Twenty-four hour prior to dosing, the hair of the mini-pig was shaved in left and right sides of the back. Two areas at least 5 cm apart at each side of the back were exposed (a total of four areas, each of which was about 112 cm^2). At the time zero, the test article was dosed to the exposed skins with […]. After dosing, the blood and skin samples were collected at 0.5, 1, 3, 6 hour. The blood was taken via venipuncture, and collected to the tubes containing heparin sodium as the anticoagulant. Exposed skin was washed with soap and water before skin sample was collected. Upon the dosed skin the punch biopsy from the epidermis layer to the muscle layer were taken at each time point. Epidermis, dermis, subcutis and subcutaneous muscle were quickly separated, weighed and frozen in dry ice. Epidermis and dermis were homogenized in 1:3 (w/v) normal saline. Homogenized samples were extracted with 3 fold volumes of acetonitrile and quantified against a standard curve with LC-MS/MS system.

[7] = Mouse pharmacokinetic study (intravenous and oral); format: in vivo; conditions: male, plasma, ICR mice, solution
Experimental: Pharmacokinetic profile of test articles in rodent were evaluated in fasted male ICR mouse and Sprague-Dawley rats. […] Rats were dosed with 1 mg/kg and 5 mg/kg by intravenous injection and oral gavage, respectively. Beagle dogs were dosed with 1 mg/kg and 5 mg/kg by intravenous injection and oral gavage, respectively. After dosing, blood samples were collected at each time point. For IV injection group, time points were set at 5, 15, 30 min, and then 1, 2, 4, 8 and 24 hours after dosing. For oral gavage group, timepoints were set at 15, 30 m, and then 1, 2, 4, 8, and 24 hours. Blood was collected into appropriately labeled tubes containing K2EDTA as the anticoagulant. Plasma was obtained within 1 hours of blood collection by centrifugation at 8000×g and 4° C. for 6 minutes, and then stored at −20° C. until analyzed by LCMS/MS for quantification.

| AUC [1] [ng·h/mL] | Cmax [1] [ng/mL] | bioavailability [1] [%] | Colon + Feces AUC [2] | Colon AUC [2] | AUC [2] [ng·h/mL] | Cmax [2] [ng/mL] | half-life [1] [h] | SMILES | other results |
| --- | --- | --- | --- | --- | --- | --- | --- | --- | --- |
| 27.9 | 11 | 0.9 | – | – | – | – | – | C[C@@H](C#N)NC(=O)c1ccc(-c2nc(Nc3cnn(C4CCNCC4)c3)ncc2Cl)cc1 [Example 165, (S)-4-(5-chloro-2-((1-(piperidin-4-yl)-1H-pyrazol-4-yl)amino)pyrimidin-4-yl)-N-(1-cyanoethyl)benzamide] | – |
| 527 | 125 | 19.1 | 827,222 h*ng/g | 3,961 h*ng/g | 8.9 | 9.3 | 3.15 | CC[C@@H](C#N)NC(=O)c1ccc(-c2nc(Nc3cnn(C4CCN(C)CC4)c3)ncc2C)cc1 [Example 184, (S)—N-(1-Cyanopropyl)-4-(5-methyl-2-((1-(1-methylpiperidin-4-yl)-1H-pyrazol-4-yl)amino)pyrimidin-4-yl)benzamide] | half-life [2]: 0.5 h |
| – | – | – | 559,570 h*ng/g | 3860 ng·h/g | 0.4 | 1.6 | – | C[C@@H](C#N)NC(=O)c1ccc(-c2nc(Nc3cnn(C4CCN(C)CC4)c3)ncc2Cl)cc1 [Example 43, (S)-4-(5-Chloro-2-((1-(1-methylpiperidin-4-yl)-1H-pyrazol-4-yl)amino)pyrimidin-4-yl)-N-(1-cyanoethyl)benzamide] | – |
| – | – | – | 545,501 h*ng/g | 6,623 h*ng/g | 96 | 68.8 | – | Cc1cnc(Nc2cnn(CC#N)c2)nc1-c1ccc(C(=O)NCC#N)cc1 [Example 4, N-(Cyanomethyl)-4-(2-((1-(cyanomethyl)-1H-pyrazol-4-yl)amino)-5-methylpyrimidin-4-yl)benzamide] | half-life [2]: 1.6 h; AUC [3]: 855 ng·h/mL; Vd [3]: 0.37 L/kg; clearance [3]: 19.4 mL/min/kg; half-life [3]: 0.22 h; F [4]: 1.9%; AUC ([4]; male, rat, plasma): 29.8 ng·h/mL; Cmax ([4]; male, rat, plasma): 40.4 ng/mL; half-life ([4]; male, rat, plasma): 0.38 h; AUC [5]: 57.2 ng·h/mL; Cmax [5]: 58 ng/mL; bioavailability [5]: 1.8%; half-life [5]: 0.439 h |
| 93.6 | 37.9 | 4.6 | 1,629,181 h*ng/g | 6898 ng·h/g | 23.7 | 16 | 1.66 | Cc1cnc(Nc2cnn(C3CCN(C(=O)CO)CC3)c2)nc1-c1ccc(C(=O)N[C@@H](C)C#N)cc1 [Example 119, (S)—N-(1-cyanoethyl)-4-(2-((1-(1-(2-hydroxyacetyl)piperidin-4-yl)-1H-pyrazol-4-yl)amino)-5-methylpyrimidin-4-yl)benzamide] | – |
| 29.9 | 5.63 | 0.8 | – | – | – | – | 3.34 | CC[C@@H](C#N)NC(=O)c1ccc(-c2nc(Nc3cnn(C4CCNCC4)c3)ncc2Cl)cc1 [Example 183, (S)-4-(5-chloro-2-((1-(piperidin-4-yl)-1H-pyrazol-4-yl)amino)pyrimidin-4-yl)-N-(1-cyanopropyl)benzamide] | – |
| – | – | – | – | – | – | – | – | Cc1cnc(Nc2cnn(C3CC(C)(C)OC(C)(C)C3)c2)nc1-c1ccc(C(=O)NCC#N)cc1 [Example 113, N-(cyanomethyl)-4-(5-methyl-2-((1-(2,2,6,6-tetramethyltetrahydro-2H-pyran-4-yl)-1H-pyrazol-4-yl)amino)pyrimidin-4-yl)benzamide] | Dermis, AUC0-last ([6]; dermis): 5209.4 ng·h/g; Epidermis AUC0-last ([6]; epidermis): 107236.9 ng·h/g; AUC ([7]; intravenous, 1 mg/kg): 279 ng·h/mL; Vd ([7]; intravenous, 1 mg/kg): 0.67 L/kg; clearance ([7]; intravenous, 1 mg/kg): 59.5 mL/min/kg; half-life ([7]; intravenous, 1 mg/kg): 0.13 h; AUC ([7]; oral, 5 mg/kg): 113 ng·h/mL; Cmax ([7]; oral, 5 mg/kg): 175 ng/mL; bioavailability ([7]; oral, 5 mg/kg): 8.26%; half-life ([7]; oral, 5 mg/kg): 1.7 h |
